This is an account of results in article PMC8705706, “Benzimidazole Derivatives as New and Selective Inhibitors of Arginase from Leishmania mexicana with Biological Activity against Promastigotes and Amastigotes” (International Journal of Molecular Sciences, 2021).

Counter-ions that a name gives are not always drawn. Bounds are passed on as bounds.

Series [1] concerns Promastigotes of L. mexicana (MNYC/BZ/62/M379). The series is described as follows: Biological activity against promastigotes, resazurin. It is filed as cell-based, Leishmania mexicana. The following applies: 48 h. On the procedure: Promastigotes of L. mexicana (MNYC/BZ/62/M379 reference strain) were grown in Schneider’s medium supplemented with fetal bovine serum 10% (v/v), ampicillin (100 U/mL)/streptomycin (100 µg/mL). Parasites were collected at log phase to assess the compounds and 5 × 10^5 promastigotes were seeded in a 96-wells plate. Compounds were previously dissolved in dimethyl sulfoxide (DMSO) up to a concentration of 1 mg/mL. Thereafter, serial dilutions were made with culture medium from 100 µg/mL to 0.8 µg/mL and then they were added to the wells by triplicates. Parasites non treated and treated with Glucantime, Amphotericin B and Miltefosine were included as […]. Parasites were incubated at 26 °C during 48 h and resazurin 2.5 mM was added at the end into each well. Afterwards, fluorescence intensity was measured with excitation/emission 535/590 nm in a spectrofluorometer (Infinite 200, Tecan Group Ltd., Mannedorf, Switzerland). Finally, half maximal inhibitory concentration (IC50) was determined through a Probit analysis. The assays were made by triplicate in 3 independent experiments.
(Alamar Blue is a resazurin reagent that responds to reducing activity.)

Series [2] deals with amastigote of L. mexicana. The series is described as follows: Biological activity against intracellular amastigotes in J774.2 macrophages, resazurin. It is filed as cell-based, Leishmania mexicana. Conditions: intracellular L. mexicana amastigotes in J774.2 macrophages, 48 h. The procedure: Biological activity of the benzimidazole derivatives was also evaluated against the amastigote of L. mexicana. For this, 5 × 10^4 murine macrophages J774.2 (ATCC® TIB-67) per well were grown in a plate of 96 wells with RPMI medium at […], 5% CO2 during 24 h. The cells were infected with promastigotes in log phase in a 10:1 proportion (parasite: macrophage) and they were incubated at 37 °C, 5% CO2 during 24–48 h. A wash with RPMI medium to remove the not-infected promastigotes was made. Compounds were added in a serial dilution from 100 µg to 0.8 µg/mL in triplicate and were incubated at 37 °C, 5% CO2 for 48 h. Glucantime, Amphotericin B and Miltefosine were used as reference drugs. Then, the cells were lysed with a non-complemented Schneider’s medium lysis solution with SDS 0.01%, after incubating for 20 min the lysis solution was removed. Afterwards, Schneider medium was added incubating at 26 °C during four days at room temperature to differentiate intracellular amastigotes from free amastigotes. Thereafter, 20 µL of resazurin 2.5 mM was added to each well and incubated during 3 h. Fluorescence intensity and IC50 were measured as described for promastigotes. The assays were made by triplicate in 3 independent experiments.

Series [3] deals with Murine macrophages J774.2. Details: method as in Matadamas-Martínez et al., 2019 [28]. The following applies: J774.2 murine macrophages; previous study under the same conditions; ref Matadamas-Martínez et al., 2019 [28]; cited from earlier work.
The subject of series [4] is L. amazonensis promastigotes. Details: method as in PMID 33198198. The following applies: cited from earlier work.
Series [5] addresses recombinant arginase from Leishmania mexicana (LmARG) (Leishmania mexicana, UniProt Q6TUJ5). Nature of the series: Inhibition of recombinant LmARG, colorimetric urea assay. It is filed as biochemical. Conditions: for Inhibition behavior of LmARG: I50 curves; for inhibition at 200 µM: read-out: % Inhibition LmARG [200 μM]; for IC50: recombinant LmARG, read-out: I50 (concentration that inhibits 50% enzyme activity), LmARG. The procedure: (§1) The activity of the recombinant arginases was measured in a colorimetric assay with some modifications. Briefly, the enzyme (2 µg) was previously activated with 1 mM MnCl2, 100 mM Tris-HCl, pH 8 during 15 min at 37 °C. Thereafter, 50 mM L-arginine was added, and the reaction was stopped after 10 min using 30 µL of an acid mixture (H2SO4, H3PO4 and H2O [1:3:7]), and 20 µL of 245 mM of α-isonitrosopropiophenone (dissolved in ethanol). Samples were heated in a thermocycler at 95 °C for 1 h. The urea in the samples was measured at 550 nm in a Synergy H1 Hybrid Multi-Mode Microplate Reader (BioTek).
(§2) The fifty molecules with the highest docking score were selected for inhibition studies that were made under the conditions mentioned above, adding the respective compound (dissolved in DMSO) at a concentration of 200 µM, keeping a final 10% DMSO concentration. The concentration that inhibits 50% of the enzyme activity (I50) was determined through curves at different compound concentrations. The I50 was obtained fitting the curves to the equation reported by Téllez-Valencia, et al., 2002 [25].

A further series deals with T1, human arginase 1 (HsARG) (Homo sapiens, UniProt P05089).
T1 construct: made in house; host or cells: E. coli BL21(DE3)pLysS
T1 sequence (P05089 1-322): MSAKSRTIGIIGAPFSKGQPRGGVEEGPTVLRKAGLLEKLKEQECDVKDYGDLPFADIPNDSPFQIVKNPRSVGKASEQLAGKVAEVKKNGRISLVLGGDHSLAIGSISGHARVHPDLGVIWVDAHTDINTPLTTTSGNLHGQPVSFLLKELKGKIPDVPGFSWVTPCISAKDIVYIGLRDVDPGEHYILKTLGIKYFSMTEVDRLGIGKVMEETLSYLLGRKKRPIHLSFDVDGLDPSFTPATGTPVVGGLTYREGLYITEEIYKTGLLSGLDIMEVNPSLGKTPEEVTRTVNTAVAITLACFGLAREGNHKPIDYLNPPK
The series is described as follows: Inhibition of recombinant human arginase 1, colorimetric urea assay. It is filed as biochemical. The following applies: for Selectivity LmARG versus HsARG: comparison of inhibition of LmARG and HsARG; for Inhibition of recombinant HsARG: highest concentration possible to be tested, 1 mM. The procedure:
as §1, §2

Series [6] can be described thus: Cytotoxicity assay, resazurin. It is filed as cell-based. Conditions: mouse, J774.2 murine macrophages, maximum concentration evaluated. On the procedure:
Murine macrophages J774.2 (ATCC® TIB-67) (5 × 10^4 cells/well) were grown in plates of 96 wells for 24 h at 37 °C in 5% CO2. Thereafter, compounds were added in serial diluted concentrations (100 to 0.8 µg/mL) and they were incubated during 24 h. The cellular vitality was evaluated using resazurin, adding 20 µL to each well at 2.5 mM incubating 4 h. Finally, the cytotoxic concentration (CC50) was determined through a Probit analysis. The assays were made by triplicate in 3 independent experiments. CC50 values of Amphotericin B, Miltefosine and Glucantime were taken from a previous study performed under the same conditions by our research group.

The next series deals with promastigotes. The following applies: cited from earlier work.

The melting point is the temperature, or range, at which the solid turns liquid. For the compound `CSc1nc2cc(N3CCNCC3)c(Cl)cc2[nH]1` (as salt: HCl) [Compound 6, 6-Chloro-2-(methylthio)-5-(piperazin-1-yl)-1H-benzimidazole], the melting point fell in the range of 235 to 237 °C.

The compound `COC(=O)Nc1nc2ccc(Cl)cc2n1C` (hydrate or solvate) [Compound 8, Methyl (6-chloro-1-methyl-1H-benzimidazol-2-yl)carbamate] registered a melting point of 191.3 to 192.4 °C.

As for `C[C@@H]1[C@H](O)[C@@H](C)/C=C/C=C/C=C/C=C/C=C/C=C/C=C/[C@H](O[C@@H]2O[C@H](C)[C@@H](O)[C@H](N)[C@@H]2O)C[C@@H]2O[C@](O)(C[C@@H](O)C[C@@H](O)[C@H](O)CC[C@@H](O)C[C@@H](O)CC(=O)O[C@H]1C)C[C@H](O)[C@H]2C(=O)O` [Amphotericin B], the figures for the IC50 in [1] (Leishmania mexicana) and in [2] (Leishmania mexicana) were 0.89 µM and 1.3 µM, respectively. Further, the CC50 in series [3] is 7.4 µM.

For `O=C(/C=C/c1ccc(O)c(O)c1)Nc1ccccc1` [CAPA, caffeic acid phenylamide], the IC50 in series [4] was 82.6 µM.

A word on the inhibition: it is the drop in the measured response relative to a control, in per cent. For the compound `COC(=O)Nc1nc2cc(Cl)ccc2n1C` [Compound 1, Methyl (5-chloro-1-methyl-1H-benzimidazol-2-yl)carbamate], in series [5], the “Inhibition behavior of LmARG” value is “cooperative behavior”, the inhibition at 200 µM was 100% and the IC50 is 52 µM. Besides, at human arginase 1 (HsARG), the “Selectivity LmARG versus HsARG” value is reported as “selective to the enzyme from parasite” and the “Inhibition of recombinant HsARG” value is “none of the compounds inhibit completely the enzyme”. Moreover, the IC50 in series [1] (Leishmania mexicana) came to 64 µM. Further, the IC50 in [2] (Leishmania mexicana) stood at 32 µM. For the same compound, the CC50 at 24 h in series [6] was greater than 417 µM.

Regarding `CSc1nc2cc(C(N)=O)c(Cl)cc2[nH]1` [Compound 2, 6-Chloro-2-(methylthio)-1H-benzimidazole-5-carboxamide], in series [5], the “Inhibition behavior of LmARG” value is “cooperative behavior”, the inhibition at 200 µM was found to be 100% and the IC50 turned out to be 82 µM. On human arginase 1 (HsARG), the “Selectivity LmARG versus HsARG” value is given as “selective to the enzyme from parasite” and the “Inhibition of recombinant HsARG” value is on record as “none of the compounds inhibit completely the enzyme”. The compound also returned an IC50 in [1] (Leishmania mexicana) of 132 µM. The compound further yielded an IC50 in [2] (Leishmania mexicana) of 101 µM. The compound also returned a CC50 at 24 h in [6] (J774.2 macrophages) greater than 414 µM.

`COC(=O)c1cc2c(cc1Cl)nc(SCC=NNC(N)=O)n2C` [Compound 3, Methyl 2-((2-(2-carbamoylhydrazineylidene)ethyl)thio)-5-chloro-1-methyl-1H-benzimidazole-6-carboxylate]: the melting point was 196.7 to 197.1 °C. Further, the inhibition at 200 µM in series [5] stood at 60%.

Turning to `CC(=O)c1nc2cc(Cl)ccc2n1C` [Compound 4], the inhibition at 200 µM in [5] was 56%.

On to `CNC(=O)c1nc2ccc(Cl)cc2n1C` [Compound 5], for which, in series [5], the inhibition at 200 µM came out at 56%.

Take `CSc1nc2cc(N3CCNCC3)c(Cl)cc2[nH]1` [Compound 6, 6-Chloro-2-(methylthio)-5-(piperazin-1-yl)-1H-benzimidazole]: the inhibition at 200 µM in series [5] came to 46%.

`COC(=O)c1cc2c(cc1Cl)nc(SCCNC(=N)N)n2C` [Compound 7, Methyl 5-chloro-2-((2-guanidinoethyl)thio)-1-methyl-1H-benzimidazole-6-carboxylate] yielded a melting point of 172.9 to 173.4 °C. In addition, the inhibition at 200 µM in series [5] came to 40%.

`COC(=O)Nc1nc2ccc(Cl)cc2n1C` [Compound 8, Methyl (6-chloro-1-methyl-1H-benzimidazol-2-yl)carbamate]: the inhibition at 200 µM in [5] worked out at 40%.

For `CCCSc1ccc2c(c1)nc(NC(=O)OC)n2C` [Compound 9, Methyl (1-methyl-5-(propylthio)-1H-benzimidazol-2-yl)carbamate], the melting point is 120.5 to 122.1 °C. Also, the inhibition at 200 µM in [5] turned out to be 36%.

In the case of `CC(=O)c1nc2ccc(Cl)cc2n1C` [Compound 10], the inhibition at 200 µM in series [5] worked out at 33%.

Consider `CNc1ccc(Cl)cc1N` [Compound 11], for which, in series [5], the inhibition at 200 µM stood at 33%.

Take `CNc1cc(Cl)ccc1N` [Compound 12]: the inhibition at 200 µM in series [5] worked out at 30%.

For `CCCSc1ccc(NC)c(N)c1` [Compound 13], the inhibition at 200 µM in series [5] was 27%.

For the compound `COC(=O)c1cc2nc(S)[nH]c2cc1Cl` [Compound 15], the inhibition at 200 µM in series [5] came out at 25%.

For the compound `COC(=O)c1cc2c(cc1Cl)nc(S)n2C` [Compound 16], the inhibition at 200 µM in series [5] is 25%.

Turning to `CCCCCCCCCCCCCCCCOP(=O)([O-])OCC[N+](C)(C)C` [Miltefosine], the results for the IC50 in series [1] (Leishmania mexicana) and in series [2] (Leishmania mexicana) were 8.1 µM and 8.6 µM, respectively. Besides, the CC50 in series [3] is 141 µM.

For `NC(=NCCC[C@H](N)C(=O)O)NO` [NOHA], the EC50 in promastigotes result in the series on promastigotes was “millimolar order”.

Take `N=C(NO)NCC[C@H](N)C(=O)O` [nor-NOHA]: the EC50 in promastigotes result in the series with promastigotes is “millimolar order”.

On to meglumine antimoniate [Glucantime], for which the IC50 is 101 µM in series [1] and 35 µM in series [2]. In series [3], the CC50 is greater than 273 µM.
